One data set deals with T1, sclerostin (Homo sapiens, UniProt Q9BQB4).
T1 construct: host or cells: human embryonic cells (the assay cells)
T1 sequence (Q9BQB4 24-213): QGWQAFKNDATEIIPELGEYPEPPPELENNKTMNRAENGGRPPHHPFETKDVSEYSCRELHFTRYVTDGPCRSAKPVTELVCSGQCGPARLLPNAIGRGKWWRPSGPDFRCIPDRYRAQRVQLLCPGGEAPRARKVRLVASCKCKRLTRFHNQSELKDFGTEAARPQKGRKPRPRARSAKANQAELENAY
In words: Modulation of sclerostin/Wnt activity: restoring Wnt3a signaling in the presence of sclerostin. The class given is cell-based. Set-up: key to Sclerostin Inhibition Assay; improvement over sclerostin alone: − indicates no improvement over sclerostin protein alone; + indicates an IC100 >10 μM; ++ indicates an IC100 <10 μM. The note with it: for Sclerostin Inhibition Assay; improvement over sclerostin alone: IC100 class, Wnt3a signaling in human embryonic cells in presence of sclerostin. The protocol:
Compounds synthesized in accordance with the methods of Examples 1-14 were assayed for their ability to restore Wnt signaling in the presence of sclerostin consistent with a known sclerostin antagonist, sclerostin Mab. See, Ellies et al., J Bone Miner Res 21:1738-1749 (2006). […] The addition of a known sclerostin antagonist inhibited sclerostin inhibition of Wnt3a signaling, thus restoring Wnt3a signaling in the cell (IC100 at 10 μM) (data not shown).

In data set [1] the test system is MC3T3-E1 (mouse calvarial) osteoblast cells. Description: Bone formation assay: rescue of sclerostin inhibition of mineralization (calcium concentration). Type of data set: cell-based. Set-up: key to Sclerostin Inhibition of Mineralization; improvement over sclerostin alone: − indicates no improvement over sclerostin protein alone; + indicates an IC100 >10 μM; ++ indicates an IC100 <10 μM. The settings on record: for IC100: Mus musculus, MC3T3-E1, IC100 class, read-out: Sclerostin Inhibition of Mineralization, improvement over sclerostin alone; for Sclerostin Inhibition of Mineralization; improvement over sclerostin alone: IC100 class. The protocol:
Mineralization (crystalline calcium phosphate formation) represents an in vitro model of bone formation. Using an assay in which the amount of mineralization is quantified by measuring total calcium after solubilization of deposited crystalline calcium phosphate, sclerostin was previously shown to inhibit mineralization in MC3T3-E1 (mouse calvarial) osteoblast cells. Li et al., J Bone Miner Res 24:578-588 (2008). Following the protocol described in Li et al., Compounds were assayed for their ability to rescue the inhibition of mineralization by sclerostin in MC3T3 osteoblast cells. […] Addition of a compound of Examples 1-14 neutralized sclerostin-mediated inhibition of mineralization, as reflected by the increase in calcium concentration.

Data set [2] in a line: Metabolic stability in pooled human liver microsomes. The settings on record: 0.1 μM compound, human liver microsomes 0.1 mg/mL, NADPH, 37 °C, 60 minutes. The class given is in vitro ADME. The protocol: Compounds of the present invention (0.1 μM) were incubated with microsomes at 37 °C for a total of 60 minutes. The reaction contained pooled human liver microsomal protein (0.1 mg/mL) in potassium phosphate buffer with NADPH. At the indicated time points (0, 5, 15, 30 and 60 minutes). Samples were analyzed by LC/MS/MS and remaining parent drug was calculated using Microsoft Excel (2007). Obach R S, Drug Metab Dispos. 27(11):1350-1359 (1999).
On the technique in general: Microsomes from liver hold many membrane-bound enzymes, among them those of drug oxidation.

On to `COc1ccc2c3ccnc(C(F)(F)F)c3n(CCN3CCOCC3)c2c1F.Cl` [Example 1, 4-(2-(8-Fluoro-7-methoxy-1-(trifluoromethyl)-9H-pyrido[3,4-b]indol-9-yl)ethyl)morpholine Hydrochloride Salt], for which the “Sclerostin Inhibition Assay; improvement over sclerostin alone” value on sclerostin is “+ (+ indicates an IC100 >10 μM)”. In addition, in data set [1], the IC100 was above 10 µM. For the same molecule, the “Metabolic Stability” value in data set [2] is listed as “++ (++ indicates a stability >1x)”.

As for `COc1cc2c(cc1F)c1ccnc(C(F)(F)F)c1n2CCN1CCOCC1.Cl` [Example 2, 4-(2-(6-fluoro-7-methoxy-1-(trifluoromethyl)-9H-pyrido[3,4-b]indol-9-yl)ethyl)morpholine Hydrochloride Salt], on sclerostin, the “Sclerostin Inhibition Assay; improvement over sclerostin alone” value was “++ (++ indicates an IC100 <10 μM)”. In data set [1], the IC100 was below 10 µM. The “Metabolic Stability” value in data set [2] is recorded as “++ (++ indicates a stability >1x)”.

Consider `COc1cc2c(cc1F)c1ccnc(C(F)(F)F)c1n2CCN1CCC(OC)CC1.Cl` [Example 3, 6-Fluoro-7-methoxy-9-(2-(4-methoxypiperidin-1-yl)ethyl)-1-(trifluoromethyl)-9H-pyrido[3,4-b]indole Hydrochloride Salt], for which, at sclerostin, the “Sclerostin Inhibition Assay; improvement over sclerostin alone” value is recorded as “++ (++ indicates an IC100 <10 μM)”. Besides, the IC100 in data set [1] is below 10 µM. In data set [2], the “Metabolic Stability” value was “++ (++ indicates a stability >1x)”.

Take `COc1cc2c(cc1F)c1ccnc(C(F)(F)F)c1n2CCN1CCN(C)C(=O)C1.Cl` [Example 4, 4-(2-(6-Fluoro-7-methoxy-1-(trifluoromethyl)-9H-pyrido[3,4-b]indol-9-yl)ethyl)-1-methylpiperazin-2-one Hydrochloride Salt]: the “Sclerostin Inhibition Assay; improvement over sclerostin alone” value on sclerostin is on record as “+ (+ indicates an IC100 >10 μM)”. Moreover, in data set [1], the IC100 is above 10 µM. The “Metabolic Stability” value in data set [2] is “++ (++ indicates a stability >1x)”.

In the case of `COc1cc2c(cc1F)c1ccnc(C(F)(F)F)c1n2CCN1CC(OC(F)F)C1.Cl` [Example 5, 9-(2-(3-(Difluoromethoxy)azetidin-1-yl)ethyl)-6-fluoro-7-methoxy-1-(trifluoromethyl)-9H-pyrido[3,4-b]indole Hydrochloride Salt], the “Sclerostin Inhibition Assay; improvement over sclerostin alone” value at sclerostin is given as “++ (++ indicates an IC100 <10 μM)”. The IC100 in data set [1] is below 10 µM. Also, the “Metabolic Stability” value in data set [2] is “++ (++ indicates a stability >1x)”.

On to `COc1cc2c(cc1F)c1ccnc(C(F)(F)F)c1n2CCN1CC2CCC(C1)O2.Cl` [Example 6, 3-(2-(6-Fluoro-7-methoxy-1-(trifluoromethyl)-9H-pyrido[3,4-b]indol-9-yl)ethyl)-8-oxa-3-azabicyclo[3.2.1]octane Hydrochloride Salt], for which the “Sclerostin Inhibition Assay; improvement over sclerostin alone” value on sclerostin is listed as “++ (++ indicates an IC100 <10 μM)”. For the same molecule, the IC100 in data set [1] is below 10 µM. In addition, the “Metabolic Stability” value in data set [2] was “++ (++ indicates a stability >1x)”.

Take `COc1cc2c(cc1F)c1ccnc(C(F)(F)F)c1n2CCN1C2CCC1COC2.Cl` [Example 7, 8-(2-(6-Fluoro-7-methoxy-1-(trifluoromethyl)-9H-pyrido[3,4-b]indol-9-yl)ethyl)-3-oxa-8-azabicyclo[3.2.1]octane Hydrochloride Salt]: on sclerostin, the “Sclerostin Inhibition Assay; improvement over sclerostin alone” value is reported as “++ (++ indicates an IC100 <10 μM)”. Besides, the IC100 in data set [1] was below 10 µM. In addition, in data set [2], the “Metabolic Stability” value is “+ (+ indicates a stability of <1x)”.

In the case of `COc1cc2c(cc1F)c1ccnc(C(F)(F)F)c1n2CCN1CC2CC1CO2.Cl` (stereo not shown) [Example 8, 5-(2-(6-Fluoro-7-methoxy-1-(trifluoromethyl)-9H-pyrido[3,4-b]indol-9-yl)ethyl)-2-oxa-5-azabicyclo[2.2.1]heptane Hydrochloride Salt], the “Sclerostin Inhibition Assay; improvement over sclerostin alone” value at sclerostin is reported as “++ (++ indicates an IC100 <10 μM)”. In addition, the IC100 in data set [1] is below 10 µM. In data set [2], the “Metabolic Stability” value was “+ (+ indicates a stability of <1x)”.

Take `COc1cc2c(cc1F)c1ccnc(C(F)(F)F)c1n2CCN1CC(OC)C(OC)C1.Cl` (stereo not shown) [Example 9, 9-(2-(3,4-Dimethoxypyrrolidin-1-yl)ethyl)-6-fluoro-7-methoxy-1-(trifluoromethyl)-9H-pyrido[3,4-b]indole Hydrochloride Salt]: the “Sclerostin Inhibition Assay; improvement over sclerostin alone” value at sclerostin is “++ (++ indicates an IC100 <10 μM)”. Also, the IC100 in data set [1] is below 10 µM. Moreover, the “Metabolic Stability” value in data set [2] is listed as “+ (+ indicates a stability of <1x)”.

Consider `COc1cc2c(cc1F)c1ccnc(C(F)(F)F)c1n2CCN1CCC(OC)C1.Cl` (stereo not shown) [Example 10, 6-Fluoro-7-methoxy-9-(2-(3-methoxypyrrolidin-1-yl)ethyl)-1-(trifluoromethyl)-9H-pyrido[3,4-b]indole Hydrochloride Salt], for which, on sclerostin, the “Sclerostin Inhibition Assay; improvement over sclerostin alone” value is reported as “++ (++ indicates an IC100 <10 μM)”. The IC100 in data set [1] is below 10 µM. Further, the “Metabolic Stability” value in data set [2] is “++ (++ indicates a stability >1x)”.

With `COc1cc2c(cc1F)c1ccnc(C(F)(F)F)c1n2CCN1CC2COCC2C1.Cl` (stereo not shown) [Example 11, 5-(2-(6-Fluoro-7-methoxy-1-(trifluoromethyl)-9H-pyrido[3,4-b]indol-9-yl)ethyl)hexahydro-1H-furo[3,4-c]pyrrole Hydrochloride Salt], the “Sclerostin Inhibition Assay; improvement over sclerostin alone” value on sclerostin was “++ (++ indicates an IC100 <10 μM)”. In addition, the IC100 in data set [1] is below 10 µM. Further, the “Metabolic Stability” value in data set [2] is on record as “++ (++ indicates a stability >1x)”.

With `COc1cc2c(cc1F)c1ccnc(C(F)(F)F)c1n2CCN1CCC(F)(F)CC1.Cl` [Example 12, 9-(2-(4,4-Difluoropiperidin-1-yl)ethyl)-6-fluoro-7-methoxy-1-(trifluoromethyl)-9H-pyrido[3,4-b]indole Hydrochloride Salt], the “Sclerostin Inhibition Assay; improvement over sclerostin alone” value at sclerostin is given as “−”. For the same molecule, the “Sclerostin Inhibition of Mineralization; improvement over sclerostin alone” value in data set [1] is given as “−”. Further, in data set [2], the “Metabolic Stability” value is on record as “++ (++ indicates a stability >1x)”.

For the molecule `COc1cc2c(cc1F)c1ccnc(C(F)(F)F)c1n2CCn1cncn1.Cl` [Example 13, 9-(2-(1H-1,2,4-Triazol-1-yl)ethyl)-6-fluoro-7-methoxy-1-(trifluoromethyl)-9H-pyrido[3,4-b]indole Hydrochloride Salt], the “Sclerostin Inhibition Assay; improvement over sclerostin alone” value at sclerostin was “−”. For the same molecule, the “Sclerostin Inhibition of Mineralization; improvement over sclerostin alone” value in data set [1] was “−”. Moreover, the “Metabolic Stability” value in data set [2] is “++ (++ indicates a stability >1x)”.

Take `COc1c(F)cc2c3ccnc(C(F)(F)F)c3n(CCN3CCOCC3)c2c1F.Cl` [Example 14, 4-(2-(6,8-Difluoro-7-methoxy-1-(trifluoromethyl)-9H-pyrido[3,4-b]indol-9-yl)ethyl)morpholine Hydrochloride Salt]: on sclerostin, the “Sclerostin Inhibition Assay; improvement over sclerostin alone” value is recorded as “++ (++ indicates an IC100 <10 μM)”. Moreover, the IC100 in data set [1] is below 10 µM. Also, the “Metabolic Stability” value in data set [2] is listed as “+ (+ indicates a stability of <1x)”.

Regarding “Sclerostin protein: protein that antagonizes Wnt3a signaling and inhibits mineralization; the assay's inhibitor and baseline”, the “Sclerostin Inhibition Assay; improvement over sclerostin alone” value in the data set with sclerostin is given as “−”. Moreover, in the data set with sclerostin (human embryonic cells), the “Effect of sclerostin on Wnt3a signaling (in words)” value is given as “antagonized Wnt3a signaling”. Also, in data set [1], the “Effect of sclerostin treatment alone on mineralization (in words)” value was “significant decrease in mineralization” and the “Sclerostin Inhibition of Mineralization; improvement over sclerostin alone” value is reported as “−”.

The values above are taken from patent US12324809B2, “Fluoro beta-carboline compounds” (OSSIFI THERAPEUTICS LLC, priority 2018, dated 2025).
